target: T1, skeletal myofibrils (Rabbit Psoas), myosin ATPase activity; experiment: Skeletal Myofibril ATPase Assay; assay type: biochemical; conditions: skeletal myofibrils (Rabbit Psoas 0.25 mg/mL), PK/LDH-coupled NADH absorbance at 340 nm
T1 construct: Rabbit Psoas Prep 11 (0.25 mg/mL)
Method: Overview: Myosin ATPase activity is assessed by using a coupled reaction system, in which ADP generated by the myosin ATPase function is coupled to the disappearance of NADH through the pyruvate kinase/lactate dehydrogenase (PK-LDH) system. Myosin ATPase activity produces ADP, which is used as a substrate for PK to produce pyruvate and regenerate ATP. The pyruvate is then used as a substrate by LDH to oxidize NADH to NAD+. The rate of the reaction is monitored through the time-dependent disappearance of NADH using absorbance at 340 nm. Inhibition of ATPase activity by the assayed compounds is indicated by a reduced rate of NADH loss, relative to vehicle-treated controls, over the experimental time window. To assess the selectivity of the assayed compounds for skeletal myofibrils, the compounds are counter-screened in cardiac myofibrils.
Materials: The following stock solutions and reagents were used in the Skeletal Myofibril ATPase Assay:
Stock Solutions of pCa buffer. Combine PIPES, CaCl2, and EGTA solutions with 70 mL of water. Adjust pH to 7.0 and bring final volume to 100 mL.
Buffer A & Buffer B. Buffers were stored on ice until use.
Skeletal Myofibril ATPase Assay Procedure: BSA, ATP, NADH, PEP, and DTT solutions were thawed at room temperature, then transferred to ice. Pellet-frozen myofibrils were transferred with approximately twice the required volume into a sufficiently large tube and capped. Myofibrils were thawed by rolling in a water bath for approximately 15 min at room temperature and cooled on ice. Buffers A and B were prepared by adjusting volumes as necessary for required number of wells and stored on ice. 0.5 μL of the compounds to be assayed were added into wells. 25 μL of Buffer A was dispensed into the wells, followed by 25 μL of Buffer B. The wells were measured for absorbance at 340 nm, using a kinetic protocol in which the wells are read every 1.5-2 min for 45 min. The slope of the data was approximated by subtracting the minimum absorbance value from the maximum value for each well. This was accomplished either in the SoftMax Pro software or in a spreadsheet program such as Excel. Using GraphPad Prism 8.0, the data was normalized by assigning a value of 100% to the 1% DMSO vehicle wells. Typically, a normalized 0% value was simply assigned to a (Max−Min) value of 0. The normalized data was fit to a Four Parameter Logistic sigmoidal equation, constraining the bottom to be 0 or greater. Compounds of Table 1 to 4 were tested and results of the assay appear in Table 5 herein. A=IC50 is less than or equal to 10 μM; B=IC50 is greater than 10 μM and less than 100 μM; C=IC50 is greater than 100 μM.

Structure (SMILES) | IC50
O=c1ccc(-c2cnc(NCC(F)F)nc2)nn1Cc1ccc(Cl)cc1 [Compound 32, 2-(4-chlorobenzyl)-6-(2-((2,2-difluoroethyl)amino)pyrimidin-5-yl)pyridazin-3(2H)-one] | < 10 µM
O=c1ccc(-c2cnc(OCC3COC3)nc2)nn1Cc1ccc(Cl)cc1 [Compound 33, 2-(4-chlorobenzyl)-6-(2-(oxetan-3-ylmethoxy)pyrimidin-5-yl)pyridazin-3(2H)-one] | < 10 µM
O=c1ccc(-c2cnc(OCC(F)(F)F)nc2)nn1Cc1cccc(Cl)c1 [Compound 34, 2-(3-chlorobenzyl)-6-(2-(2,2,2-trifluoroethoxy)pyrimidin-5-yl)pyridazin-3(2H)-one] | < 10 µM
O=c1ccc(-c2cnc(OCC(F)(F)F)nc2)nn1Cc1cccc(F)c1 [Compound 35, 2-(3-fluorobenzyl)-6-(2-(2,2,2-trifluoroethoxy)pyrimidin-5-yl)pyridazin-3(2H)-one] | < 10 µM
O=c1ccc(-c2cnc(OCC(F)(F)F)nc2)nn1Cc1ccccc1F [Compound 36, 2-(2-fluorobenzyl)-6-(2-(2,2,2-trifluoroethoxy)pyrimidin-5-yl)pyridazin-3(2H)-one] | < 10 µM
O=c1ccc(-c2cnc(OCC(F)(F)F)nc2)nn1Cc1ccc(F)cc1 [Compound 37, 2-(4-fluorobenzyl)-6-(2-(2,2,2-trifluoroethoxy)pyrimidin-5-yl)pyridazin-3(2H)-one] | < 10 µM
O=c1ccc(-c2cnc(OCC(F)(F)F)nc2)nn1Cc1cccc(F)c1F [Compound 38, 2-(2,3-difluorobenzyl)-6-(2-(2,2,2-trifluoroethoxy)pyrimidin-5-yl)pyridazin-3(2H)-one] | < 10 µM
O=c1ccc(-c2cnc(OCC(F)(F)F)nc2)nn1Cc1ccc(F)cc1F [Compound 39, 2-(2,4-difluorobenzyl)-6-(2-(2,2,2-trifluoroethoxy)pyrimidin-5-yl)pyridazin-3(2H)-one] | < 10 µM
O=c1ccc(-c2cnc(OCC(F)(F)F)nc2)nn1Cc1cc(F)ccc1F [Compound 40, 2-(2,5-difluorobenzyl)-6-(2-(2,2,2-trifluoroethoxy)pyrimidin-5-yl)pyridazin-3(2H)-one] | < 10 µM
O=c1ccc(-c2cnc(OCC(F)(F)F)nc2)nn1Cc1c(F)cccc1F [Compound 41, 2-(2,6-difluorobenzyl)-6-(2-(2,2,2-trifluoroethoxy)pyrimidin-5-yl)pyridazin-3(2H)-one] | < 10 µM
O=c1ccc(-c2cnc(OCC(F)(F)F)nc2)nn1Cc1ccc(F)c(F)c1 [Compound 42, 2-(3,4-difluorobenzyl)-6-(2-(2,2,2 trifluoroethoxy)pyrimidin-5-yl)pyridazin-3(2H)-one] | < 10 µM
O=c1ccc(-c2cnc(OCC(F)(F)F)nc2)nn1Cc1cc(F)cc(F)c1 [Compound 43, 2-(3,5-difluorobenzyl)-6-(2-(2,2,2-trifluoroethoxy)pyrimidin-5-yl)pyridazin-3(2H)-one] | < 10 µM
O=c1ccc(-c2cnc(N3CC(F)(F)C3)nc2)nn1Cc1ccc(Cl)cc1 [Compound 44, 2-(4-chlorobenzyl)-6-(2-(3,3-difluoroazetidin-1-yl)pyrimidin-5-yl)pyridazin-3(2H)-one] | < 10 µM
O=C1CCCN1c1ncc(-c2ccc(=O)n(Cc3ccc(Cl)cc3)n2)cn1 [Compound 45, 2-(4-chlorobenzyl)-6-(2-(2-oxopyrrolidin-1-yl)pyrimidin-5-yl)pyridazin-3(2H)-one] | 10 to 100 µM
O=c1ccc(-c2cnc(NCCOC(F)F)nc2)nn1Cc1ccc(Cl)cc1 [Compound 46, 2-(4-chlorobenzyl)-6-(2-((2-(difluoromethoxy)ethyl)amino)pyrimidin-5-yl)pyridazin-3(2H)-one] | < 10 µM
CC1CCC(=O)N1c1ncc(-c2ccc(=O)n(Cc3ccc(Cl)cc3)n2)cn1 (stereo not drawn) [Compound 47, 2-(4-chlorobenzyl)-6-(2-(2-methyl-5-oxopyrrolidin-1-yl)pyrimidin-5-yl)pyridazin-3(2H)-one] | < 10 µM
O=c1ccc(-c2cnc(OCC(F)(F)F)nc2)nn1Cc1ccc(CO)cc1 [Compound 48, 2-(4-(hydroxymethyl)benzyl)-6-(2-(2,2,2-trifluoroethoxy)pyrimidin-5-yl)pyridazin-3(2H)-one] | < 10 µM
O=c1ccc(-c2cnc(OCC(F)(F)F)nc2)nn1Cc1ccccc1O [Compound 49, 2-(2-hydroxybenzyl)-6-(2-(2,2,2-trifluoroethoxy)pyrimidin-5-yl)pyridazin-3(2H)-one] | < 10 µM

Structure (SMILES) | IC50
O=c1ccc(-c2cnc(OCC(F)(F)F)nc2)nn1Cc1cc(Cl)ccc1O [Compound 50, 2-(5-chloro-2-hydroxybenzyl)-6-(2-(2,2,2-trifluoroethoxy)pyrimidin-5-yl)pyridazin-3(2H)-one] | < 10 µM
[2H]C([2H])(c1ccccc1)n1nc(-c2cnc(OCC(F)(F)F)nc2)ccc1=O [Compound 52, 2-(phenylmethyl-d2)-6-(2-(2,2,2-trifluoroethoxy)pyrimidin-5-yl)pyridazin-3(2H)-one] | < 10 µM
O=c1ccc(-c2ccc(OC(F)F)nc2)nn1[C@@H](CO)c1ccc(Cl)cc1 [Compound 53, (R)-2-(1-(4-chlorophenyl)-2-hydroxyethyl)-6-(6-(difluoromethoxy)pyridin-3-yl)pyridazin-3(2H)-one] | > 100 µM
O=c1ccc(-c2cnc(OCC(F)(F)F)nc2)nn1C1(c2ccccc2)CC1 [Compound 54, 2-(1-phenylcyclopropyl)-6-(2-(2,2,2-trifluoroethoxy)pyrimidin-5-yl)pyridazin-3(2H)-one] | < 10 µM
O=c1ccc(-c2ccc(OCC(F)(F)F)cc2)nn1Cc1ccc(Cl)cc1 [Compound 101, 2-(4-chlorobenzyl)-6-(4-(2,2,2-trifluoroethoxy)phenyl)pyridazin-3(2H)-one] | < 10 µM
O=c1ccc(-c2ccc(OCC(F)F)cc2)nn1Cc1ccc(Cl)cc1 [Compound 102, 2-(4-chlorobenzyl)-6-(4-(2,2-difluoroethoxy)phenyl)pyridazin-3(2H)-one] | < 10 µM
O=c1ccc(-c2ccc(OC(F)F)cc2)nn1Cc1ccc(Cl)cc1 [Compound 103, 2-(4-chlorobenzyl)-6-(4-(difluoromethoxy)phenyl)pyridazin-3(2H)-one] | < 10 µM
O=c1ccc(-c2ccc(C3CC3)cc2)nn1Cc1ccc(Cl)cc1 [Compound 104, 2-(4-chlorobenzyl)-6-(4-cyclopropylphenyl)pyridazin-3(2H)-one] | < 10 µM
O=c1ccc(-c2ccc(OC(F)(F)F)cc2)nn1Cc1ccc(Cl)cc1 [Compound 105, 2-(4-chlorobenzyl)-6-(4-(trifluoromethoxy)phenyl)pyridazin-3(2H)-one] | < 10 µM
COCCOc1ccc(-c2ccc(=O)n(Cc3ccc(Cl)cc3)n2)cc1 [Compound 106, 2-(4-chlorobenzyl)-6-(4-(2-methoxyethoxy)phenyl)pyridazin-3(2H)-one] | < 10 µM
CC(=O)Nc1ccc(-c2ccc(=O)n(Cc3ccc(Cl)cc3)n2)cc1 [Compound 107, N-(4-(1-(4-chlorobenzyl)-6-oxo-1,6-dihydropyridazin-3-yl)phenyl)acetamide] | < 10 µM
N#CCOc1ccc(-c2ccc(=O)n(Cc3ccc(Cl)cc3)n2)cc1 [Compound 108, 2-(4-(1-(4-chlorobenzyl)-6-oxo-1,6-dihydropyridazin-3-yl)phenoxy)acetonitrile] | < 10 µM
CC1Cc2cc(-c3ccc(=O)n(Cc4ccc(Cl)cc4)n3)ccc2O1 (stereo not drawn) [Compound 109, 2-(4-chlorobenzyl)-6-(2-methyl-2,3-dihydrobenzofuran-5-yl)pyridazin-3(2H)-one] | < 10 µM
C[C@H]1Cc2cc(-c3ccc(=O)n(Cc4ccc(Cl)cc4)n3)ccc2O1 [Compound 110, (S)-2-(4-chlorobenzyl)-6-(2-methyl-2,3-dihydrobenzofuran-5-yl)pyridazin-3(2H)-one] | < 10 µM
C[C@@H]1Cc2cc(-c3ccc(=O)n(Cc4ccc(Cl)cc4)n3)ccc2O1 [Compound 111, (R)-2-(4-chlorobenzyl)-6-(2-methyl-2,3-dihydrobenzofuran-5-yl)pyridazin-3(2H)-one] | < 10 µM
O=c1ccc(-c2ccc3c(c2)CCO3)nn1Cc1ccc(Cl)cc1 [Compound 112, 2-(4-chlorobenzyl)-6-(2,3-dihydrobenzofuran-5-yl)pyridazin-3(2H)-one] | < 10 µM
CNC(=O)c1ccc(-c2ccc(=O)n(Cc3ccc(Cl)cc3)n2)cc1 [Compound 113] | 10 to 100 µM
NC(=O)c1ccc(-c2ccc(=O)n(Cc3ccc(Cl)cc3)n2)cc1 [Compound 114, 4-(1-(4-chlorobenzyl)-6-oxo-1,6-dihydropyridazin-3-yl)benzamide] | 10 to 100 µM

— patent US11390606B2, “Pyridazinone compounds and uses thereof” (Edgewise Therapeutics, Inc., priority 2018, dated 2022)
